Molecular target: T1, Human Polymorphonuclear Leukocyte Elastase (Homo sapiens, UniProt P08246)
T1 construct: Crude extract of human polymorphonuclear leukocytes (PMN) containing elastase activity; from tissue; host or cells: human polymorphonuclear leukocytes (crude extract)
T1 sequence (P08246 30-267): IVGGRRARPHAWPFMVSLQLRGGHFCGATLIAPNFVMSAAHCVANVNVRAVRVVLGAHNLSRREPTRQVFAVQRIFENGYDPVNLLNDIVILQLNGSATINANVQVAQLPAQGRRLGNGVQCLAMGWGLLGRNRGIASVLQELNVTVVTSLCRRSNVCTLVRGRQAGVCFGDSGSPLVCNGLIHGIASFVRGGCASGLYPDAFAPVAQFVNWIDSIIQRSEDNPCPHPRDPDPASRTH
Assay: Enzyme assay for inhibition of human polymorphonuclear leukocyte elastase via hydrolysis of Boc-AAPAN or Boc-AAPVN
Assay type: biochemical
Conditions: pH 7.5, second order rate constant for inactivation of the enzyme, expressed to the nearest thousand, read-out: Kobs/[I]
Method in brief: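 Crude human PMN extract as enzyme source, with 0.2 mM Boc-AAPAN in 0.05M TES buffer pH 7.5. Inhibitors in DMSO were added to substrate before the extract, and rate was followed as ΔOD/min at 410 mµ. Values are kobs/I, the second-order inactivation rate constant (per mole per second).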

kinact/KI [M⁻¹ s⁻¹]	Compound
1e+06	CCC[C@@H](NC(=O)N1C(=O)C(CC)(CC)[C@@H]1Oc1ccc(C(=O)NC2CN(CC)N(CC)C2)cc1)c1ccc(C)cc1 [Compound 118]
2.69e+06	CCC[C@@H](NC(=O)N1C(=O)C(CC)(CC)[C@@H]1Oc1ccc(C(=O)N2CCC[C@H]2CN2CCCC2)cc1)c1ccc(C)cc1 [Compound 119]
1.73e+06	CCC[C@@H](NC(=O)N1C(=O)C(CC)(CC)[C@@H]1Oc1ccc(C(=O)NCCN2CCC(O)CC2)cc1)c1ccc(C)cc1 [Compound 120, [S-(R+,S*)]-3,3-diethyl-2-[4-[[[2-(4-hydroxy-1-piperidinyl)ethyl]amino]carbonyl]phenoxy]-N-[1-(4-methyl-phenyl)butyl]-4-oxo-1-azetidine-carboxamide]
1.53e+06	CCC[C@@H](NC(=O)N1C(=O)C(CC)(CC)[C@@H]1Oc1ccc(C(=O)NCCN2CCCC(O)C2)cc1)c1ccc(C)cc1 (stereo partly shown) [Compound 123]
1.96e+06	CCC[C@@H](NC(=O)N1C(=O)C(CC)(CC)[C@@H]1Oc1ccc(C(=O)N(C)CCN2CCCC(O)C2)cc1)c1ccc(C)cc1 (stereo partly shown) [Compound 124]
990000	CCC[C@@H](NC(=O)N1C(=O)C(CC)(CC)[C@@H]1Oc1ccc(C(=O)N(CCC)CCC)cc1)c1ccc(C)cc1 [Compound 127]
1.45e+06	CCC[C@@H](NC(=O)N1C(=O)C(CC)(CC)[C@@H]1Oc1ccc(C(=O)N(CC)CC)cc1)c1ccc(C)cc1 [Compound 128]
1.99e+06	CCC[C@@H](NC(=O)N1C(=O)C(CC)(CC)[C@@H]1Oc1ccc(C(=O)N(C)CCN2CCC(O)CC2)cc1)c1ccc(C)cc1 [Compound 129]
1.11e+06	CCC[C@@H](NC(=O)N1C(=O)C(CC)(CC)[C@@H]1Oc1ccc(C(=O)NCCN2CCC(O)C2)cc1)c1ccc(C)cc1 (stereo partly shown) [Compound 131]
960000	CCC[C@@H](NC(=O)N1C(=O)C(CC)(CC)[C@@H]1Oc1ccc(C(=O)N(C)CCN2CCC(O)C2)cc1)c1ccc(C)cc1 (stereo partly shown) [Compound 138]
1.51e+06	CCC[C@@H](NC(=O)N1C(=O)C(CC)(CC)[C@@H]1Oc1ccc(C(=O)NCCN2CCC[C@H]2CO)cc1)c1ccc(C)cc1 [Compound 141]
1.52e+06	CCC[C@@H](NC(=O)N1C(=O)C(CC)(CC)[C@@H]1Oc1ccc(C(=O)N2CC(C)NC(C)C2)cc1)c1ccc(C)cc1 (stereo partly shown) [Compound 146]

The remaining lines, values behind:

Compound	kinact/KI [M⁻¹ s⁻¹]
CCC[C@@H](NC(=O)N1C(=O)C(CC)(CC)[C@@H]1Oc1ccc(C(=O)NCCN2CCS(=O)(=O)CC2)cc1)c1ccc(C)cc1 [Compound 109]	1.28e+06
CCC[C@@H](NC(=O)N1C(=O)C(CC)(CC)[C@@H]1Oc1ccc(C(=O)NCc2ccc(N(C)C)cc2)cc1)c1ccc(C)cc1 [Compound 110]	5.6e+06
CCC[C@@H](NC(=O)N1C(=O)C(CC)(CC)[C@@H]1Oc1ccc(C(=O)Nc2cccc(N(C)C)c2)cc1)c1ccc(C)cc1 [Compound 111]	2.29e+06
CCC[C@@H](NC(=O)N1C(=O)C(CC)(CC)[C@@H]1Oc1ccc(C(=O)N(C)CCN2CCS(=O)(=O)CC2)cc1)c1ccc(C)cc1 [Compound 112]	1.6e+06
CCC[C@@H](NC(=O)N1C(=O)C(CC)(CC)[C@@H]1Oc1ccc(C(=O)Nc2ccc(N(C)C)cc2)cc1)c1ccc(C)cc1 [Compound 113]	2.59e+06
CCC[C@@H](NC(=O)N1C(=O)C(CC)(CC)[C@@H]1Oc1ccc(C(=O)NCCc2nccn2Cc2ccccc2)cc1)c1ccc(C)cc1 [Compound 114]	3.85e+06
CCC[C@@H](NC(=O)N1C(=O)C(CC)(CC)[C@@H]1Oc1ccc(C(=O)N(C)CCc2ccccn2)cc1)c1ccc(C)cc1 [Compound 115]	2.27e+06
CCC[C@@H](NC(=O)N1C(=O)C(CC)(CC)[C@@H]1Oc1ccc(C(=O)N(C)C2CN3CCC2CC3)cc1)c1ccc(C)cc1 (stereo partly shown) [Compound 116]	3.48e+06
CCC[C@@H](NC(=O)N1C(=O)C(CC)(CC)[C@@H]1Oc1ccc(C(=O)NCCN2CCN(C(=O)OCc3ccccc3)CC2)cc1)c1ccc(C)cc1 [Compound 117]	6.23e+06
CCC[C@@H](NC(=O)N1C(=O)C(CC)(CC)[C@@H]1Oc1ccc(C(=O)NCCN2CCCCCC2)cc1)c1ccc(C)cc1 [Compound 121]	2.07e+06
CCC[C@@H](NC(=O)N1C(=O)C(CC)(CC)[C@@H]1Oc1ccc(C(=O)N(C)CCN2CCCCCC2)cc1)c1ccc(C)cc1 [Compound 122]	2.9e+06
CCC[C@@H](NC(=O)N1C(=O)C(CC)(CC)[C@@H]1Oc1ccc(C(=O)N(C)CCN(C)Cc2ccccc2)cc1)c1ccc(C)cc1 [Compound 125]	2.05e+06
CCC[C@@H](NC(=O)N1C(=O)C(CC)(CC)[C@@H]1Oc1ccc(C(=O)N(C)CCN2CCC(OCc3ccccc3)CC2)cc1)c1ccc(C)cc1 [Compound 126]	3.48e+06
CCC[C@@H](NC(=O)N1C(=O)C(CC)(CC)[C@@H]1Oc1ccc(C(=O)N(C)CCN2CCC(=O)CC2)cc1)c1ccc(C)cc1 [Compound 130]	2.3e+06
CCC[C@@H](NC(=O)N1C(=O)C(CC)(CC)[C@@H]1Oc1ccc(C(=O)N(CC)CCN2CCCCC2)cc1)c1ccc(C)cc1 [Compound 132]	1.24e+06
CCC[C@@H](NC(=O)N1C(=O)C(CC)(CC)[C@@H]1Oc1ccc(C(=O)N(CCN2CCCCC2)Cc2ccccc2)cc1)c1ccc(C)cc1 [Compound 133]	1.52e+06
CCC[C@@H](NC(=O)N1C(=O)C(CC)(CC)[C@@H]1Oc1ccc(C(=O)Nc2ccc(F)cc2)cc1)c1ccc(C)cc1 [Compound 134]	724000
CCC[C@@H](NC(=O)N1C(=O)C(CC)(CC)[C@@H]1Oc1ccc(C(=O)Nc2cccc(Cl)c2)cc1)c1ccc(C)cc1 [Compound 135]	201000
CCC[C@@H](NC(=O)N1C(=O)C(CC)(CC)[C@@H]1Oc1ccc(C(=O)N(CCN(C)C)Cc2ccccc2)cc1)c1ccc(C)cc1 [Compound 137]	1.38e+06
CCC[C@@H](NC(=O)N1C(=O)C(CC)(CC)[C@@H]1Oc1ccc(C(=O)N(CCN2CCCCC2)Cc2cccnc2)cc1)c1ccc(C)cc1 [Compound 139]	1.19e+06
CCC[C@@H](NC(=O)N1C(=O)C(CC)(CC)[C@@H]1Oc1ccc(C(=O)NC(C)CCCN(CC)CC)cc1)c1ccc(C)cc1 (stereo partly shown) [Compound 140]	1.36e+06
CCC[C@@H](NC(=O)N1C(=O)C(CC)(CC)[C@@H]1Oc1ccc(C(=O)N(C)CCN2CCN(C(=O)OC(C)(C)C)CC2)cc1)c1ccc(C)cc1 [Compound 142]	3.47e+06
CCC[C@@H](NC(=O)N1C(=O)C(CC)(CC)[C@@H]1Oc1ccc(C(=O)N(CCN(C)C)CCN(C)C)cc1)c1ccc(C)cc1 [Compound 143]	1.88e+06
CCC[C@@H](NC(=O)N1C(=O)C(CC)(CC)[C@@H]1Oc1ccc(C(=O)N(CCN(CC)CC)CCN(CC)CC)cc1)c1ccc(C)cc1 [Compound 144]	1.51e+06
CCC[C@@H](NC(=O)N1C(=O)C(CC)(CC)[C@@H]1Oc1ccc(C(=O)N(C)CCN(C)Cc2cccnc2)cc1)c1ccc(C)cc1 [Compound 145]	2.88e+06
CCC[C@@H](NC(=O)N1C(=O)C(CC)(CC)[C@@H]1Oc1ccc(C(=O)N(C)CC[N+](C)([O-])Cc2ccccc2)cc1)c1ccc(C)cc1 (stereo partly shown) [Compound 147]	2.49e+06
CCC[C@@H](NC(=O)N1C(=O)C(CC)(CC)[C@@H]1Oc1ccc(C(=O)N(C)CCN(C)Cc2ccncc2)cc1)c1ccc(C)cc1 [Compound 148]	2.39e+06
CCC[C@@H](NC(=O)N1C(=O)C(CC)(CC)[C@@H]1Oc1ccc(C(=O)N2CCC[C@H]2CN(C)Cc2ccccc2)cc1)c1ccc(C)cc1 [Compound 149]	3.27e+06

— patent publication EP0595557A1, “New substituted azetidinones as anti-inflammatory and antidegenerative agents” (MERCK & CO. INC., priority 1992, dated 1994)
